In one data set the test system is HIV-1 IIIB. As to the kind of experiment: Anti-HIV-1 activity in MT-4 cell culture (P24 antigen). Type of data set: cell-based.
Data set [1] in a line: Cytotoxicity in MT-4 cells, MTT method. Conditions: human.
Data set [2] can be described thus: Solubility of the drugs to be tested. Type of data set: physicochemical. The method, then: During the test, the solution was dissolved by DMSO to suitable concentration, diluted by culture medium, and immediately added into cell culture.
The next data set relates to HBV DNA. The experiment in a line: HBV DNA in Hep G2.2.15 cell supernatant, fluorescent quantitative PCR. As to conditions: for HBV DNA copy number / Inhibition ratio (%): cell supernatant. The format is cell-based, hepatitis B virus.
Another data set relates to Hep G2.2.15. As to the kind of experiment: Cytotoxicity on Hep G2.2.15 (MTT). Type of data set: cell-based, human. Conditions: for Cell Survival Rate: MTT.
The test system of a further data set is VSVG/HIV-luc. The experiment in a line: Pharmacological model of wild type HIV-1 replication (VSVG/HIV-luc, Cell 293). The format is cell-based.
The test system of the next data set is HCV. As to the kind of experiment: Anti-HCV activity, HCV-RNA by automatic PCR ELISA. The format is cell-based. The procedure: The HCV replication cells (Avva.5) were cultivated in the Dulbecco's improved Eagle medium containing 10% fetal calf serum and 1 mg/ml G418. 293-Sip-L cells were cultivated in the Dulbecco's improved Eagle medium containing 10% fetal calf serum, 250 μg/ml G418 and 150 μg/ml hygromycin B.
Using Petri culture dish in a diameter of 60 mm, the cells were cultivated in a positive culture medium containing 100 μl of HCV for 12 hours. Then, the cells were cultivated in the fresh medium containing on HCV and the medium was replaced once everyday. When detecting HCV-RNA 7 days after the cells have been infected with HCV, it is necessary to clean the cells using the Dulbecco's improved Eagle medium in trypsinization and centrifugation methods. The upper layer part cleaned for the second time (used for comparison) and the washed cells were collected for RNA extraction and RT-PCR detection. β-actin mRNA was simultaneously determined for the purpose of comparison.
The quantitative determination on HCV-RNA is performed in automatic PCR Enzyme-linked immunosorbent assay (ELISA). (Edition 2.0, Roche Diagnostics, Branchburg, N.J.)
HCV-NA level was determined in automatic PCR ELISA.

Setting [3] is: Human immunodeficiency virus 1, MT4, 96 h, HIV-1 IIIB in MT-4 cell culture, 4 days, read-out: IC50.
Where [4] appears, read: MT-4 cells infected with HIV-1 IIIB.
The mark [5] stands for this setting: Human immunodeficiency virus 1, IIIB, MT4, 96 h.
[6] abbreviates: Human immunodeficiency virus 1, VSVG/HIV-luc, Cell 293, read-out: Remarks IC50.
The mark [7] stands for this setting: 0.06 μg/ml in the cell supernatant.
The mark [8] stands for this setting: 0.6 μg/ml in the cell supernatant.
[9] abbreviates: 6 μg/ml in the cell supernatant.

Values after ≈ are worked out from the molar mass of the structure shown. Read-outs that look alike come from different tables or passages of the source. Some results are limits rather than exact numbers.

In general, IC50 refers to the point on the concentration scale where inhibition reaches its midpoint. By CC50 is commonly meant the concentration that lowers cell viability or growth by half. A higher CC50 goes with lower toxicity to the cells. By EC50 is commonly meant the concentration at which the effect is half-maximal. Read a high EC50 as lower potency in that assay.

For `Cc1cn([C@H]2C[C@H](N=[N+]=[N-])[C@@H](CO)O2)c(=O)[nH]c1=O` [AZT, Zidovudine, reference compound], in the data set with HIV-1 IIIB (setting [3]), the IC50 is 0.182 ng/mL (≈ 0.000681 µM). Further, the CC50 at 4 days in data set [1] (setting [4]) and in data set [1] (uninfected MT-4 cells) was more than 0.625 µg/mL throughout.

`[N-]=[N+]=NC1(CO)OC(n2cc(F)c3c(N)ncnc32)C(F)C1O` (stereo not shown) [Compound 50]: in data set [2], the “Solubility in DMSO” value is “DMSO-soluble” and the Solubility in water result is “water-insoluble”. The IC50 with HIV-1 IIIB (setting [3]) was 2300 ng/mL (≈ 7.03 µM). Moreover, the CC50 at 4 days in data set [1] (setting [4]) is 28.3 µg/mL (≈ 86.5 µM). Moreover, in data set [1] (uninfected MT-4 cells), half-maximal cytotoxicity (CC50 at 4 days) was put at 27.9 µg/mL (≈ 85.3 µM).

With `Cc1ccnc2c1NC(=O)c1cccnc1N2C1CC1` [NVP, Nevirapine, reference compound], the concentration for half-maximal inhibition (IC50) in the data set with HIV-1 IIIB (setting [3]) stood at 3.64 ng/mL (≈ 0.0137 µM). In addition, the CC50 at 4 days in data set [1] (setting [4]) and in data set [1] (uninfected MT-4 cells) was more than 12.5 µg/mL throughout.

In the case of `[N-]=[N+]=NC1(CO)OC(n2ccc(N)nc2=O)C(F)C1O` (stereo not shown) [Compound 15], in data set [2], the “Solubility in DMSO” value is on record as “DMSO-soluble”. The Solubility in water entry in data set [2] is “water-insoluble”. For the same compound, the “HBV DNA copy number” value was 18.9 *10^5 with HBV DNA (0.016 μg/L), 13.5 *10^5 in the data set with HBV DNA (0.08 μg/L), 10.3 *10^5 in the data set with HBV DNA (0.4 μg/L) and 5.21 *10^5 in the data set on HBV DNA (2 μg/L). Besides, the “Inhibition ratio (%)” value in the data set with HBV DNA (0.016 μg/L) is listed as 41.0%; in the data set on HBV DNA (0.08 μg/L), 57.8%; in the data set with HBV DNA (0.4 μg/L), 67.8%; with HBV DNA (2 μg/L) it was 83.7%. The compound further returned an EC50 in the data set with HBV DNA (Hepatitis B virus, HepG2.2.15, HBV DNA in Hep G2.2.15 supernatant) of 0.00019 µg/mL (≈ 0.000664 µM). The “Effect on HBV DNA copy number (in words)” value with HBV DNA (after administration, in vitro) is on record as “significantly reduce”. Further, the “Cell Survival Rate” value in the data set on Hep G2.2.15 (8 μg/ml) is 98.7%; with Hep G2.2.15 (40 μg/ml) it was 96.7%; in the data set on Hep G2.2.15 (200 μg/ml), 85.5%; in the data set on Hep G2.2.15 (1000 μg/ml), 82.6%. Besides, in the data set with Hep G2.2.15 (in vitro tests), the “Toxicity (in words)” value is “less toxicity”. Also, the half-maximal inhibitory concentration (IC50) in the data set with HIV-1 IIIB (setting [5]) stood at 0.01 ng/mL (≈ 3.49e-05 µM); in the data set on VSVG/HIV-luc (Human immunodeficiency virus 1, read-out: Remarks IC50), 1.5 nM. Also, the CC50 at 4 days in data set [1] (setting [4]) and in data set [1] (uninfected MT-4 cells) was more than 100 µg/mL each time.

For `CC1(CO)OC(n2ccc(O)nc2=O)C(F)C1O` (stereo not shown) [Compound 9], in data set [2], the “Solubility in DMSO” value is “DMSO-soluble” and the Solubility in water result is on record as “water-insoluble”. This compound also displayed an IC50 in the data set with HIV-1 IIIB (setting [5]) of 162 ng/mL (≈ 0.623 µM). The same compound showed a CC50 at 4 days in data set [1] (setting [4]) of 31.2 µg/mL (≈ 120 µM). The compound further came in with a half-maximal cytotoxic concentration (CC50) at 4 days in data set [1] (uninfected MT-4 cells) of 30.1 µg/mL (≈ 115 µM).

With `C#CC1(CO)OC(n2cnc3c(F)ncnc32)C(F)C1O` (stereo not shown) [Compound 19], the “Solubility in DMSO” value in data set [2] is “DMSO-soluble”. The Solubility in water entry in data set [2] was “water-insoluble”. Besides, the half-inhibitory concentration (IC50) worked out at 90 ng/mL (≈ 0.304 µM) with HIV-1 IIIB (setting [5]) and 1000 nM with VSVG/HIV-luc (setting [6]). The results for the cytotoxic concentration (CC50) at 4 days in data set [1] (setting [4]) and in data set [1] (uninfected MT-4 cells) were 43.8 µg/mL (≈ 148 µM) and 39.8 µg/mL (≈ 134 µM), respectively.

As for `N#CC1(CO)OC(n2cc(F)c3c(O)ncnc32)C(F)C1O` (stereo not shown) [Compound 46], the “Solubility in DMSO” value in data set [2] is “DMSO-soluble”. Besides, the Solubility in water result in data set [2] is on record as “water-insoluble”. In addition, the concentration for half-maximal inhibition (IC50) in the data set with HIV-1 IIIB (setting [3]) turned out to be 131 ng/mL (≈ 0.42 µM). The CC50 at 4 days in data set [1] (setting [4]) is 48.5 µg/mL (≈ 155 µM); in data set [1] (uninfected MT-4 cells), 55.4 µg/mL (≈ 177 µM).

With `[N-]=[N+]=NC1(CO)OC(n2ccc(O)nc2=O)C(F)C1O` (stereo not shown) [Compound 17], the figures for the “HBV DNA copy number” value with HBV DNA (100 μg/L), in the data set with HBV DNA (500 μg/L) and with HBV DNA (1000 μg/L) were 19.2 *10^5, 14.3 *10^5 and 10.2 *10^5, respectively. For the same compound, the “Inhibition ratio (%)” value with HBV DNA (100 μg/L) came out at 40.6%; in the data set on HBV DNA (500 μg/L), 52.2%; with HBV DNA (1000 μg/L), 67.9%. For the same compound, the results for the “Inhibition effect Test 1 (HCV-RNA level)” value in the data set with HCV (setting [7]), in the data set with HCV (setting [8]) and in the data set with HCV (setting [9]) were 4.9 × 10^2, 0.92 × 10^2 and 1.1 × 10^2, respectively. Besides, the entries for the “Inhibition effect Test 2 (HCV-RNA level)” value in the data set with HCV (setting [7]), with HCV (setting [8]) and in the data set on HCV (setting [9]) were 4.1 × 10^2, 0.78 × 10^2 and 0.81 × 10^2, respectively. The “Inhibition effect on HCV (in words)” value in the data set with HCV (6 μg/ml, 0.6 μg/ml or 0.06 μg/ml) is recorded as “relatively strong inhibition effect”.

As for `C#CC1(CO)OC(n2cc(F)c3c(N)ncnc32)C(F)C1O` (stereo not shown) [Compound 52], in data set [2], the “Solubility in DMSO” value is listed as “DMSO-soluble” and the Solubility in water result is “water-insoluble”. In addition, the IC50 in the data set with HIV-1 IIIB (setting [3]) amounted to 133 ng/mL (≈ 0.429 µM). The compound also gave a CC50 at 4 days in data set [1] (setting [4]) of 41.3 µg/mL (≈ 133 µM). In data set [1] (uninfected MT-4 cells), this compound gave a CC50 at 4 days of 38.6 µg/mL (≈ 124 µM).

Consider `CC1(CO)OC(n2cnc3c(O)ncnc32)C(F)C1O` (stereo not shown) [Compound 36], for which, in data set [2], the “Solubility in DMSO” value is on record as “DMSO-soluble” and the Solubility in water entry is given as “water-insoluble”. In addition, the IC50 in the data set with HIV-1 IIIB (setting [3]) was found to be 127 ng/mL (≈ 0.447 µM). For the same compound, in data set [1] (setting [4]), the half-maximal cytotoxic concentration (CC50) at 4 days amounted to 35.1 µg/mL (≈ 124 µM). Further, in data set [1] (uninfected MT-4 cells), the cytotoxic concentration (CC50) at 4 days stood at 37.5 µg/mL (≈ 132 µM).

`C#CC1(CO)OC(n2ccc(N)nc2=O)C(F)C1O` (stereo not shown) [Compound 1]: the “Solubility in DMSO” value in data set [2] is given as “DMSO-soluble”. Moreover, the Solubility in water entry in data set [2] is on record as “water-insoluble”. Besides, the IC50 in the data set on HIV-1 IIIB (setting [3]) amounted to 101 ng/mL (≈ 0.375 µM); in the data set with VSVG/HIV-luc (setting [6]), 500 nM. The half-maximal cytotoxic concentration (CC50) at 4 days in data set [1] (setting [4]) is 43.6 µg/mL (≈ 162 µM); in data set [1] (uninfected MT-4 cells) it was 40.9 µg/mL (≈ 152 µM).

Regarding `N#CC1(CO)OC(n2cnc3c(N)ncnc32)C(F)C1O` (stereo not shown) [Compound 39], in data set [2], the “Solubility in DMSO” value was “DMSO-soluble” and the Solubility in water entry is “water-insoluble”. The IC50 in the data set on HIV-1 IIIB (setting [3]) was found to be 1490 ng/mL (≈ 5.06 µM). Also, the CC50 at 4 days in data set [1] (setting [4]) amounted to 38.3 µg/mL (≈ 130 µM). This compound came in with a CC50 at 4 days in data set [1] (uninfected MT-4 cells) of 36.8 µg/mL (≈ 125 µM).

The values are drawn from patent US8835615B2, “2′-fluorine-4′-substituted-nucleoside analogues, preparation methods and uses thereof” (priority 2007, dated 2014).
